Laboratory results: patent US20230286973A1, “PROTEIN SECRETION INHIBITORS” (KEZAR LIFE SCIENCES, priority 2020, published 2023)
pEC50, pIC50: −log10 of the molar value.

Legend:
[1] = test system: PD1-ss+10aa/Gaussia Luciferase; experiment: Dox-Induced PD1-ss-Gluc Assay; type: cell-based; settings: 24 hr Dox induction; 293FRT/TO cells; mean; read-out: 24 hr Dox Inducible PD1ssGluc 293FRT/TO: Mean IC50
Outline: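 Doxycycline-induced expression of a PD1-ss+10aa/Gaussia luciferase reporter is measured in stable Flp-In 293 T-REx cells. Compound dilutions containing doxycycline are added one day after plating and incubated at 37 °C, 5% CO2. Values for unassigned stereocentres refer to stereoisomer mixtures.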

[2] = test system: TNFα-FL/Gaussia Luciferase; experiment: Dox Induced TNFα-FL-Gluc Assay; type: cell-based; settings: for pIC50: 24 hr Dox induction, 293FRT/TO cells, mean, read-out: 24 hr Dox Inducible TNFaFLGluc 293FRT/TO: Mean IC50; for 24 hr Dox Inducible TNFaFLGluc 293FRT/TO: TNF/PD1: ratio of TNFaFLGluc IC50 to PD1ssGluc IC50, '<=>' given where both are I.A.
Outline: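 Doxycycline-inducible Gaussia luciferase-tagged full-length TNFα (1-233) was expressed in stable Flp-In 293 T-REx cells. Compounds were co-added with doxycycline and incubated at 37 °C, 5% CO2.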

[3] = test system: HER3-ss+4aa/Gaussia Luciferase; experiment: Dox-Induced Her3-ss-Gluc Assay; type: cell-based; settings: 24 hr Dox induction; 293FRT/TO cells; mean; read-out: 24 hr Dox Inducible Her3(ss + 4)Gluc 293FRT/TO: Mean IC50
Outline: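 Reporter line: Flp-In 293 T-REx, T-REx-regulated HER3-ss+4aa fused to Gaussia luciferase. Compound co-added with doxycycline after overnight plating, 37° C., 5% CO2.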

[4] = test system: IL-2-FL/Gaussia Luciferase; experiment: Dox Induced IL2-FL-Gluc Assay; type: cell-based; settings: for pIC50: 24 hr Dox induction, 293FRT/TO cells, mean, read-out: 24 hr Dox Inducible IL2FLGluc 293FRT/TO: Mean IC50; for 24 hr Dox Inducible IL2FLGluc 293FRT/TO: IL2/PD1: ratio of IL2FLGluc IC50 to PD1ssGluc IC50, '<=>' given where both are I.A.
Outline: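 Doxycycline induces an IL-2(1-153)–Gaussia luciferase fusion in a stable Flp-In 293 T-REx line. Compound exposure runs alongside induction at 37° C.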

[5] = test system: multiple myeloma cell line NCI-H929; experiment: H929 Cell Viability Assay; type: cell-based, human; settings: Homo sapiens, NCI-H929, 48 h, NCI-H929 cells, Celltiter-Glo
Outline: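 Viability is scored by CellTiter-Glo luminescence following a 48-hour treatment at 37° C. Data for structures shown without stereochemistry refer to stereoisomer mixtures.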

[6] = test system: multiple myeloma cell line U266B1; experiment: U266 Cell Viability Assay; type: cell-based, human; settings: Homo sapiens, U-266, 48 h, U266B1 cells, Celltiter-Glo
Outline: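 Viability is measured as luciferase signal from CellTiter-Glo following a 48-hour incubation with compound at 37° C. under 5% CO2. Where structures lack drawn stereochemistry, values refer to stereoisomer mixtures.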

[7] = Liver Microsome Stability Assay (rat); settings: rat liver microsomes, with NADPH, 1.0 uM compound
Protocol: (§1) Stability of a compound was assessed in the presence of liver microsomes from various sources—mouse, rat, monkey and human liver microsomes. 1.0 uM compound, 0.4% DMSO in 0.1 M Potassium Phosphate with 1.0 mg/mL liver microsomes, were incubated at 37° C. with or without 1 mM NADPH. The samples were quenched at 0, and 30 minutes.

[8] = Liver Microsome Stability Assay (mouse); settings: mouse liver microsomes, with NADPH, 1.0 uM compound
Protocol: as §1

[9] = Liver Microsome Stability Assay (human); settings: human liver microsomes, with NADPH, 1.0 uM compound
Protocol: as §1

[10] = Liver Microsome Stability Assay (monkey); settings: monkey liver microsomes, with NADPH, 1.0 uM compound
Protocol: as §1

| pIC50 [1] | pIC50 [2] | pIC50 [3] | pIC50 [4] | pEC50 [5] | pEC50 [6] | Liver Microsome Stability (Multiple Species): Rat - % Remaining after 30 min w/NADPH [7] [%] | Liver Microsome Stability (Multiple Species): Mouse - % Remaining after 30 min w/NADPH [8] [%] | Liver Microsome Stability (Multiple Species): Human - % Remaining after 30 min w/NADPH [9] [%] | Liver Microsome Stability (Multiple Species): Monkey - % Remaining after 30 min w/NADPH [10] [%] | SMILES | 24 hr Dox Inducible IL2FLGluc 293FRT/TO: IL2/PD1 [4] | 24 hr Dox Inducible TNFaFLGluc 293FRT/TO: TNF/PD1 [2] |
| --- | --- | --- | --- | --- | --- | --- | --- | --- | --- | --- | --- | --- |
| < 4.60 | < 4.60 | < 4.60 | < 4.60 | < 4.60 | < 4.60 | 37.7 | 26.4 | 20.8 | 9.96 | CC(=O)NC/C=C/c1csc(NC(=O)c2cccn2Cc2ccncc2)n1 [Compound E30, (E)-N-(4-(3-acetamidoprop-1-en-1-yl)thiazol-2-yl)-1-(pyridin-4-ylmethyl)-1H-pyrrole-2-carboxamide] | 1 |  |
| 5.78 | < 4.60 | 5.04 | 5.04 | 5.05 | 5.10 | 21.2 | 38.3 | 2.06 | 0.25 | CN(C)CCO[C@@H]1C[C@H](c2csc(NC(=O)c3cccn3Cc3ccncc3)n2)N(c2ccccc2)C1 [Compound E31] | 5.4 | >15.0 |
| 5.99 | 5.15 | 5.51 | 5.40 | 4.60 | < 4.60 | 0.79 | 3.3 | 0.21 | 0.09 | O=C(Nc1nc([C@H]2C[C@@H](OCCO)CN2c2ccccc2)cs1)c1cccn1Cc1ccncc1 [Compound E32] | 3.9 | 6.91 |
| 5.91 | < 4.60 | 5.41 | 4.83 | < 4.60 | < 4.60 | 0.18 | 2.58 | 1.6 | 0.1 | O=C(Nc1nc(C2C3CN(c4ccccn4)CC32)cs1)c1cccn1Cc1ccncc1 (centres unmarked) [Compound E33, N-(4-(3-(pyridin-2-yl)-3-azabicyclo[3.1.0]hexan-6-yl)thiazol-2-yl)-1-(pyridin-4-ylmethyl)-1H-pyrrole-2-carboxamide] | 12 | >20.3 |
| 6.51 | 5.09 | 6.19 | 5.58 | 4.71 | 5.10 | 0.26 | 0.06 | 0.19 | 3.44 | COc1ccc(O[C@H]2CC[C@H](c3csc(NC(=O)c4cccn4Cc4ccncc4)n3)CC2)nc1 [Compound E34, N-(4-((1r,4r)-4-((5-methoxypyridin-2-yl)oxy)cyclohexyl)thiazol-2-yl)-1-(pyridin-4-ylmethyl)-1H-pyrrole-2-carboxamide] | 8.3 | 26.1 |
| 6.83 | 5.32 | 6.41 | 6.03 | 5.06 | 4.74 | 1.2 | 0.08 | 0.41 | 0.7 | COc1ccc(O[C@H]2CC[C@@H](c3csc(NC(=O)c4cccn4Cc4ccncc4)n3)CC2)nc1 [Compound E35, N-(4-((1s,4s)-4-((5-methoxypyridin-2-yl)oxy)cyclohexyl)thiazol-2-yl)-1-(pyridin-4-ylmethyl)-1H-pyrrole-2-carboxamide] | 6.3 | 32.6 |
| 6.55 | 5.30 | 6.05 | 5.77 | < 4.60 | 4.86 | 1.49 | 27.8 | 1.63 | 0.83 | O=C(Nc1nc(C2C3CN(c4ccccc4)CC32)cs1)c1cccn1Cc1ccncc1 (centres unmarked) [Compound E36, N-(4-(3-phenyl-3-azabicyclo[3.1.0]hexan-6-yl)thiazol-2-yl)-1-(pyridin-4-ylmethyl)-1H-pyrrole-2-carboxamide] | 6 | 17.8 |
| 5.54 | < 4.60 | 5.09 | 4.78 | < 4.60 | < 4.60 | 0.34 | 0.18 | 0.08 | 0.08 | O=C(Nc1nc(C2Cc3cccnc3C2)cs1)c1cccn1Cc1ccncc1 (centres unmarked) [Compound E37, N-(4-(6,7-dihydro-5H-cyclopenta[b]pyridin-6-yl)thiazol-2-yl)-1-(pyridin-4-ylmethyl)-1H-pyrrole-2-carboxamide] | 5.7 | >8.63 |
| 6.31 | 5.28 | 5.95 | 5.73 | 4.62 | 4.64 | 0.33 | 0.25 | 0.1 | 0.13 | COc1ccc(O[C@H]2CC[C@H](c3csc(NC(=O)c4cccn4Cc4ccncc4)n3)C2)nc1 [Compound E38, N-(4-((1S,3S)-3-((5-methoxypyridin-2-yl)oxy)cyclopentyl)thiazol-2-yl)-1-(pyridin-4-ylmethyl)-1H-pyrrole-2-carboxamide] | 3.8 | 10.7 |
| 6.80 | 5.78 | 6.46 | 6.35 | 5.07 | 4.86 | 1.17 | 0.23 | 0.34 | 0.19 | COc1ccc(O[C@@H]2CCC[C@H](c3csc(NC(=O)c4cccn4Cc4ccncc4)n3)C2)nc1 [Compound E39, N-(4-((1S,3R)-3-((5-methoxypyridin-2-yl)oxy)cyclohexyl)thiazol-2-yl)-1-(pyridin-4-ylmethyl)-1H-pyrrole-2-carboxamide] | 2.8 | 10.3 |
